Experiments:
[1] = biological target: T1, 3-oxo-5-alpha-steroid 4-dehydrogenase 1 (Homo sapiens, UniProt P18405); experiment: In vitro inhibition of recombinant human Steroid 5-alpha-reductase type I; details: read-out: Ki app
T1 sequence (P18405 whole entry): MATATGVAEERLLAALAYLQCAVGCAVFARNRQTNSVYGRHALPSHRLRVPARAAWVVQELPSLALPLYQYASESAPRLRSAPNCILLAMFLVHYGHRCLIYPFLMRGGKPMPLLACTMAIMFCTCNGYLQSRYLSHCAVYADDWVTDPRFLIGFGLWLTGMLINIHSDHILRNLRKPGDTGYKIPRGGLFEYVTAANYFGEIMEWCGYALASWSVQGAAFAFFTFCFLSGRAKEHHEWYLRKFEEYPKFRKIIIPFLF

[2] = biological target: T2, 3-oxo-5-alpha-steroid 4-dehydrogenase 2 (Homo sapiens, UniProt P31213); experiment: In vitro inhibition of recombinant human Steroid 5-alpha-reductase type 2; details: read-out: Ki app
T2 sequence (P31213 whole entry): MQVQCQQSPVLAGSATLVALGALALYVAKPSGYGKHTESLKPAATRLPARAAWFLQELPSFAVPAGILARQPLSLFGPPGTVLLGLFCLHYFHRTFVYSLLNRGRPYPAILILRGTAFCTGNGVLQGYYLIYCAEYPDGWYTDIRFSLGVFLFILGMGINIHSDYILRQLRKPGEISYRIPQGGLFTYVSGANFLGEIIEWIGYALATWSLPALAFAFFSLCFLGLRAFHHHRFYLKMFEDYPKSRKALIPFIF

[3] = biological target: T2, 3-oxo-5-alpha-steroid 4-dehydrogenase 2; experiment: In vitro inhibition of recombinant human Steroid 5-alpha-reductase type 2; No inhibition

SMILES | Ki [1] [nM] | Ki [2] [nM] | Ki app [3]
CN1C(=O)CC[C@@H]2c3ccc(Cl)cc3CC[C@H]21 (stereo in doubt; (-)) [BEXLOSTERIDE] | 4 | 1200 | 
CN1C(=O)CC[C@@H]2c3ccc(Cl)cc3CC[C@@H]21 (stereo in doubt; (+)-3) | 15 | 1000 | 
CN1C(=O)CC[C@@H]2c3ccc(Cl)cc3CC[C@@H]21 (stereo in doubt; (-)-3) | 15 | 5400 | 
CN1C(=O)CC[C@]2(C)c3ccc(Cl)cc3CC[C@@H]12 (stereo in doubt; (+)) | 9 | > 1000 | 
CN1C(=O)CC[C@]2(C)c3ccc(Cl)cc3CC[C@@H]12 (stereo in doubt; (-)) | 10 | > 1000 | 
CN1C(=O)CCC2=C1CCc1cc(Cl)ccc12 | 17 | 455 | 
CN1C(=O)CC[C@]2(C)c3ccc(Cl)cc3CC[C@H]12 (stereo in doubt; (+)-4) | 4000 | > 2500 | 
CN1C(=O)CC[C@]2(C)c3ccc(Cl)cc3CC[C@H]12 (stereo in doubt; (-)-4) | 7000 | > 2500 | 
CN1C(=O)CC[C@@H]2c3ccc(Cl)cc3CC[C@H]21 (stereo in doubt; (+)) [BEXLOSTERIDE] | 6 | 1000 | 
CN1C(=O)CC[C@@]2(C)C1=CCc1cc(Cl)ccc12 (racemic) | 180 |  | Not Active

From ChEMBL document CHEMBL1127900, “Preparative chiral HPLC separation of all possible stereoisomers of LY191704 and LY266111 and their in vitro inhibition of human types 1 and 2 steroid 5-reductases” (Bioorg Med Chem Lett, 1994)
